Laboratory results published in US12209085B2, “RET inhibitors, pharmaceutical compositions and uses thereof” (SUNSHINE LAKE PHARMA CO., LTD., priority 2018, dated 2025).

What was measured:
Ret wt = Ret wt (Homo sapiens (Human), UniProt P07949); assay: HTRF kinase inhibition assay, Ret wt; assay type: biochemical; settings: HTRF method
Text: (§1) • 1. […] 1) • 18) Echo (Labcyte, 550) • 3.
(§2) [formula] • Ratiopositive control: average of CEP-32496 readings in all positive control wells • Rationegative control: average of DMSO readings in all negative control wells • Wherein, the chemical name of CEP-32496 is: N-[3-[(6,7-dimethoxy-4-quinazolinyl)oxy]phenyl]-N′-[5-(2,2,2-trifluoro-1,1-dimethylethyl)-3-isoxazolyl]urea. • 4.3 Calculation of the IC50 and Drawing of the inhibition curve of the compound: • The IC50 (half inhibitory concentration) of the compound was obtained using the following non-linear fitting formula: Data analysis was performed using Graphpad 6.0 software. Y=Bottom+(Top−Bottom)/(1+10^((Log IC50−X)*Hill Slope)) • X: compound concentration log value Y: inhibition, % • 5.

Ret V804M = Ret V804M (Homo sapiens (Human), UniProt P07949, V804M); assay: HTRF kinase inhibition assay, Ret V804M; assay type: biochemical; settings: HTRF method
Text: as §1, §2

Sequence of Ret wt (P07949 29-1114): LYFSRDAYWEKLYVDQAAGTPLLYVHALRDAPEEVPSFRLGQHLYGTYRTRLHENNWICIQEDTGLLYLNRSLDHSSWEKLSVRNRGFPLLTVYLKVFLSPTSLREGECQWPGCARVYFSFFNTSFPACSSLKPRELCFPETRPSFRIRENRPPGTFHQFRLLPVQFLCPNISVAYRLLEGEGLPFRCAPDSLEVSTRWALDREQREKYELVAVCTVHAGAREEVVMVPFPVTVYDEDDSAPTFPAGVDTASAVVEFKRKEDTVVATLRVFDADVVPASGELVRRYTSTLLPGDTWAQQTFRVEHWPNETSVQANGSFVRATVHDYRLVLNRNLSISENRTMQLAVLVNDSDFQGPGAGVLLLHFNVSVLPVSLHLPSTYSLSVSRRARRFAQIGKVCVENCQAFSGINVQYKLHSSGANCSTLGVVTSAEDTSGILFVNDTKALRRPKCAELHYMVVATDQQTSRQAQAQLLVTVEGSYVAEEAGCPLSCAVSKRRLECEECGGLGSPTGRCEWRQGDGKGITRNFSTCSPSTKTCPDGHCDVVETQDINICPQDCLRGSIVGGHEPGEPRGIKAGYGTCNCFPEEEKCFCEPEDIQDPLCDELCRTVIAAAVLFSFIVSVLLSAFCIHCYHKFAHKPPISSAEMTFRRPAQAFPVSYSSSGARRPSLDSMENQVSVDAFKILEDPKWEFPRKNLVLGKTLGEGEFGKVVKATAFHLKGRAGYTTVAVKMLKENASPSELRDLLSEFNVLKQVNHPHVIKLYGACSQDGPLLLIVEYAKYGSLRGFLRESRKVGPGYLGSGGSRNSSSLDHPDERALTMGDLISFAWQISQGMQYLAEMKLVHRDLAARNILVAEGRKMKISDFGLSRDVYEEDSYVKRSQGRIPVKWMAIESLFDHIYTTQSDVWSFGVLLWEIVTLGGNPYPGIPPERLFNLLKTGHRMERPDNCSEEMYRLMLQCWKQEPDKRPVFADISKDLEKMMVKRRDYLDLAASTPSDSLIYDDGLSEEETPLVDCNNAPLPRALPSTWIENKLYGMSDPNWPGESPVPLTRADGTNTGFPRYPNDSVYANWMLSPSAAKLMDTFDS
Sequence of Ret V804M (P07949 29-1114 V804M): as the sequence (P07949 29-1114) above, with V776M counted along it

Work on Cn1cc(-c2cc(-c3ccc(N4CCN(CC#Cc5cncc(C(F)(F)F)c5)CC4)nc3)c3c(C#N)cnn3c2)cn1 [Example 265] yielded an IC50 (Ret wt) of 3.65 nM and an IC50 (Ret V804M) of 69.6 nM.
Molecule C#Cc1ccc(OC2CN(c3ccc(-c4cc(-c5c(C)noc5C)cn5ncc(C#N)c45)cn3)C2)cn1 [Example 282, 6-(3,5-dimethylisoxazol-4-yl)-4-(6-(3-((6-ethynylpyridin-3-yl)oxy)azetidin-1-yl)pyridin-3-yl)pyrazolo[1,5-a]pyridine-3-carbonitrile] has an IC50 (Ret wt) of 2.9 nM and an IC50 (Ret V804M) of 60.8 nM.
For Cn1cc(-c2cc(-c3ccc(N4CC5CC(C4)N5C(=O)C#Cc4ccccc4)nc3)c3c(C#N)cnn3c2)cn1 [Example 271, 6-(1-methyl-1H-pyrazol-4-yl)-4-(6-(6-(3-phenylpropioloyl)-3,6-diazabicyclo[3.1.1]heptane-3-yl)pyridin-3-yl)pyrazolo[1,5-a]pyridine-3-carbonitrile], the IC50 (Ret wt) was 5.82 nM and the IC50 (Ret V804M) was 74.1 nM.
With C#CC#CCN1CCN(c2ccc(-c3cc(-c4cnn(C)c4)cn4ncc(C#N)c34)cn2)CC1 [Example 275, 6-(1-methyl-1H-pyrazol-4-yl)-4-(6-(4-(penta-2,4-diyn-1-yl)piperazin-1-yl)pyridine-3-yl)pyrazolo[1,5-a]pyridine-3-carbonitrile] the IC50 (Ret wt) was 0.58 nM and the IC50 (Ret V804M) was 8.22 nM.
With Cn1cc(-c2cc(-c3ccc(N4CCN(CC#Cc5ncccc5F)CC4)nc3)c3c(C#N)cnn3c2)cn1 [Example 257, 4-(6-(6-(3-(3-fluoropyridin-2-yl)prop-2-yn-1-yl)piperazin-3-yl)pyridin-3-yl)-6-(1-methyl-1H-pyrazol-4-yl)pyrazoline[1,5-a]pyridine-3-carbonitrile] the IC50 (Ret wt) was 0.17 nM and the IC50 (Ret V804M) was 0.74 nM.
COc1ccc(C#CCN2CCN(c3ccc(-c4cc(-c5cnn(C)c5)cn5ncc(C#N)c45)cn3)CC2)cc1 [Example 251, 4-(6-(4-(3-(4-methoxyphenyl)prop-2-yn-1-yl)piperazin-1-yl)pyridin-3-yl)-6-(1-methyl-1H-pyrazolpyridin-4-yl)pyrazolo[1,5-a]pyridine-3-carbonitrile] showed an IC50 (Ret wt) of 2.41 nM and an IC50 (Ret V804M) of 27.9 nM.
C#Cc1ccc(OC2CN(c3ccc(-c4cc(-c5cnn(C(F)F)c5)cn5ncc(C#N)c45)cn3)C2)cn1 [Example 283, 6-(1-(difluoromethyl)-1H-pyrazol-4-yl)-4-(6-(3-((6-ethynylpyridin-3-yl)oxy)azetidin-1-yl)pyridin-3-yl)pyrazolo[1,5-a]pyridine-3-carbonitrile] gave an IC50 (Ret wt) of 0.39 nM and an IC50 (Ret V804M) of 2.29 nM.
Work on Cn1cc(-c2cc(-c3ccc(N4CC5CC(C4)N5CC#Cc4cccnc4)nc3)c3c(C#N)cnn3c2)cn1 [Example 249, 6-(1-methylpyrazol-4-yl)-4-[6-[6-[3-(3-pyridyl)prop-2-ynyl]-3,6-diazabicyclo[3.1.1]heptan-3-yl]-3-pyridyl]pyrazolo[1,5-a]pyridine-3-carbonitrile] yielded an IC50 (Ret wt) of 0.39 nM and an IC50 (Ret V804M) of 1.77 nM.
Molecule C#Cc1ccc(OC2CN(c3ccc(-c4cc(-c5cnn(C6CC6)c5)cn5ncc(C#N)c45)cn3)C2)cn1 [Example 280, 6-(1-cyclopropyl-1H-pyrazol-4-yl)-4-(6-(3-((6-ethynylpyridin-3-yl)oxy)azetidin-1-yl)pyridin-3-yl)pyrazolo[1,5-a]pyridine-3-carbonitrile] has an IC50 (Ret wt) of 0.43 nM and an IC50 (Ret V804M) of 0.92 nM.
Cn1cc(-c2cc(-c3ccc(N4CC5(CCN(C(=O)C#Cc6ccccc6)CC5)C4)nc3)c3c(C#N)cnn3c2)cn1 [Example 269, 6-(1-methyl-1H-pyrazol-4-yl)-4-(6-(7-(3-phenylpropioloyl)-2,7-diazaspiro[3.5]nonan-2-yl)pyridin-3-yl)pyrazolo[1,5-a]pyridine-3-carbonitrile] was tested, and the IC50 (Ret wt) was 27 nM.
For C#Cc1ccc(C(=O)N2CCN(c3ccc(-c4cc(-c5cnn(C)c5)cn5ncc(C#N)c45)cn3)CC2)nc1 [Example 237, 4-(6-(4-(5-ethynylpicolinoyl)piperazin-1-yl)pyridin-3-yl)-6-(1-methyl-1H-pyrazol-4-yl)pyrazolo[1,5-a]pyridine-3-carbonitrile], the IC50 (Ret wt) was 0.39 nM and the IC50 (Ret V804M) was 2.06 nM.
Cn1cc(-c2cc(-c3ccc(N4CC5CC(C4)N5CC#Cc4ccc(F)nc4)nc3)c3c(C#N)cnn3c2)cn1 [Example 262, 4-[6-[6-[3-(6-fluoro-3-pyridyl)prop-2-ynyl]-3,6-diazabicyclo[3.1.1]heptan-3-yl]3-pyridyl]-6-(1-methylpyrazol-4-yl)pyrazolo[1,5-a]pyridine-3-carbonitrile] was tested, and the IC50 (Ret wt) was 0.2 nM and the IC50 (Ret V804M) was 1.92 nM.
Molecule Cn1cc(-c2cc(-c3ccc(N4CC5CC(C4)N5CC#Cc4ncccc4F)nc3)c3c(C#N)cnn3c2)cn1 [Example 258, 4-(6-(6-(3-(3-fluoropyridin-2-yl)prop-2-yn-1-yl)-3,6-diazabicyclo[3.1.1]heptane-3-yl)pyridin-3-yl)-6-(1-methyl-1H-pyrazol-4-yl)pyrazoline[1,5-a]pyridin-3-carbonitrile] has an IC50 (Ret wt) of 0.15 nM and an IC50 (Ret V804M) of 0.21 nM.
C#Cc1ccc(C(=O)NC2(C)CCN(c3ccc(-c4cc(-c5cnn(C)c5)cn5ncc(C#N)c45)cn3)CC2)cc1 [Example 2, N-(1-(5-(3-cyano-6-(1-methyl-1H-pyrazol-4-yl)pyrazolo[1,5-a]pyridin-4-yl)pyridin-2-yl)-4-methyl-piperidin-4-yl)-4-ethynylbenzamide] gave an IC50 (Ret wt) of 0.35 nM.
C#Cc1cccc(C(=O)N2CCC3(CCN(c4ccc(-c5cc(-c6cnn(C)c6)cn6ncc(C#N)c56)cn4)CC3)C2)c1 [Example 229, 4-(6-(2-(3-ethynyl)-2,8-diazaspiro[4.5]dec-8-yl)pyridin-3-yl)-6-(1-methyl-1H-pyrazol-4-yl)pyrazolo[1,5-a]pyridine-3-carbonitrile] showed an IC50 (Ret wt) of 25.1 nM.
COc1cncc(C#CC(=O)N2C3CC2CN(c2ccc(-c4cc(-c5cnn(C)c5)cn5ncc(C#N)c45)cn2)C3)c1 [Example 270, 4-(6-(6-(3-(5-methoxypyridin-3-yl)propioloyl)-3,6-diazabicyclo[3.1.1]heptan-3-yl)pyridin-3-yl)-6-(1-methyl-1H-pyrazol-4-yl)pyrazolo[1,5-a]pyridine-3-carbonitrile] gave an IC50 (Ret wt) of 1.1 nM and an IC50 (Ret V804M) of 4.9 nM.
C#Cc1cncc(CN2C3CC2CN(c2ccc(-c4cc(-c5cnn(C)c5)cn5ncc(C#N)c45)cn2)C3)c1 [Example 187, 4-(6-(6-((5-ethynylpyridin-3-yl)methyl)-3,6-diazabicyclo[3.1.1]heptan-3-yl)pyridin-3-yl)-6-(1-methyl-1H-pyrazol-4-yl)pyrazolo[1,5-a]pyridine-3-carbonitrile] gave an IC50 (Ret wt) of 0.28 nM.
In the case of C#Cc1cccc(C(C)N2C3CC2CN(c2ccc(-c4cc(-c5cnn(C)c5)cn5ncc(C#N)c45)cn2)C3)n1 (centres unmarked) [Example 219, 4-(6-(6-(1-(6-ethynylpyridin-2-yl)ethyl)-3,6-diazabicyclo[3.1.1]heptan-3-yl)pyridin-3-yl)-6-(1-methyl-1H-pyrazol-4-yl)pyrazolo[1,5-a]pyridine-3-carbonitrile], the IC50 (Ret wt) was 2.9 nM.
C#Cc1cc(CN2C3CC2CN(c2ccc(-c4cc(-c5cnn(C)c5)cn5ncc(C#N)c45)cn2)C3)ccn1 [Example 217, 4-(6-(6-((2-ethynylpyridin-4-yl)methyl)-3,6-diazabicyclo[3.1.1]heptan-3-yl)pyridin-3-yl)-6-(1-methyl-1H-pyrazol-4-yl)pyrazolo[1,5-a]pyridine-3-carbonitrile] was tested, and the IC50 (Ret wt) was 0.35 nM.
Work on C#Cc1cc(CN2C3CC2CN(c2ccc(-c4cc(-c5cnn(C)c5)cn5ncc(C#N)c45)cn2)C3)ccc1F [Example 220, 4-(6-(3-(3-ethynyl-4-fluorobenzyl)-3,6-diazabicyclo[3.1.1]hept-3-yl)pyridin-3-yl)-6-(1-methyl-1H-pyrazol-4-yl)pyrazolo[1,5-a]pyridine-3-carbonitrile] yielded an IC50 (Ret wt) of 0.22 nM.
In the case of C#Cc1cccc(C(=O)N2C3CC2CN(c2ccc(-c4cc(-c5cnn(C)c5)cn5ncc(C#N)c45)cn2)C3)c1 [Example 231, 4-(6-(6-(3-ethynyl)-3,6-diazabicyclo[3.1.1]heptan-3-yl)pyridin-3-yl)-6-(1-methyl-1H-pyrazol-4-yl)pyrazolo[1,5-a]pyridine-3-carbonitrile], the IC50 (Ret wt) was 3.75 nM.
C#Cc1cccc(CN2C3CC2CN(c2ccc(-c4cc(-c5cnn(C)c5)cn5ncc(C#N)c45)cn2)C3)c1F [Example 218, 4-(6-(6-(3-ethynyl-2-fluorobenzyl)-3,6-diazabicyclo[3.1.1]heptan-3-yl)pyridin-3-yl)-6-(1-methyl-1H-pyrazol-4-yl)pyrazolo[1,5-a]pyridine-3-carbonitrile] was tested, and the IC50 (Ret wt) was 0.52 nM.
C#Cc1ccc(C(=O)N2C3CC2CN(c2ccc(-c4cc(-c5cnn(C)c5)cn5ncc(C#N)c45)cn2)C3)cc1 [Example 230, 4-(6-(6-(4-ethynyl)-3,6-diazabicyclo[3.1.1]heptan-3-yl)pyridin-3-yl)-6-(1-methyl-1H-pyrazol-4-yl)pyrazolo[1,5-a]pyridine-3-carbonitrile] showed an IC50 (Ret wt) of 1.05 nM.
With C#CCN1C2CC1CN(c1ccc(-c3cc(-c4cnn(C)c4)cn4ncc(C#N)c34)cn1)C2 [Example 195, 6-(1-methyl-1H-pyrazol-4-yl)-4-(6-(6-(prop-2-yn-1-yl)-3,6-diazabicyclo[3.1.1]heptan-3-yl)pyridin-3-yl)pyrazolo[1,5-a]pyridine-3-carbonitrile] the IC50 (Ret wt) was 0.29 nM.
Work on Cn1cc(-c2cc(-c3ccc(N4CC5CC(C4)N5CC#Cc4ccc(C(F)(F)F)cc4)nc3)c3c(C#N)cnn3c2)cn1 [Example 242, 6-(1-methyl-1H-pyrazol-4-yl)-4-(6-(6-(3-(4-(trifluoromethyl)phenyl)prop-2-yn-1-yl)-3,6-diazabicyclo[3.1.1]heptan-3-yl)pyridin-3-yl)pyrazolo[1,5-a]pyridine-3-carbonitrile] yielded an IC50 (Ret wt) of 1.72 nM.
